Literature values as cited in patent US20150196708A1, “SYSTEMS, METHODS AND COMPOSITIONS FOR IMPROVED TREATMENT OF ACIDOSIS” (The Regents of the University of California, priority 2012, published 2015).

Tests used:
[1] = test system: patients with acidosis; conditions: literature (Cooper et al., 1990; Leung et al., 1994)
[2] = room temperature; incorporates CO2(aq)/H2CO3(aq) equilibrium

| Structure (SMILES) | clinical benefit in human studies [1] | Ka1 (deprotonation) [2] |
| --- | --- | --- |
| O=C([O-])O.[Na+] [bicarbonate, sodium bicarbonate] | no more beneficial effect than the administration of similar quantities of sodium chloride |  |
| O=C(O)O [carbonic acid] |  | 4.3×10^−7 |
